Results from patent publication US10172957B2, “Acid-labile lipophilic prodrugs of cancer chemotherapeutic agents” (priority 2011, dated 2019).

Columns and labels:
CCRF-CEM (CEM) cells = assay: MTT-based cytotoxicity assay, CEM; type: cell-based, human; conditions: Homo sapiens, CCRF-CEM, read-out: IC50 CEM (HTL), CEM human T-lymphoblastoid, MTT
From the text: (§1) A second evaluation of the cytotoxicity of the acid labile, lipophilic molecular conjugates was undertaken.
(§2) These lines included a uterine sarcoma line, MES-SA, and its doxorubicin-resistant subline, MES-SA/Dx5. See W. G. Harker, F. R MacKintosh, and B. I. Sikic. Development and characterization of a human sarcoma cell line, MES-SA, sensitive to multiple drugs. Cancer Research 43: 4943-4950 (1983); W. G. Harker and B. I. Sikic. Multidrug (pleiotropic) resistance in doxorubicin-selected variants of the human sarcoma cell line MES-SA. Cancer Research 45: 4091 4096 (1985).
(§3) The second set of cells tested, CCRF-CEM or simply CEM, were derived from the blood of a patient with acute lymphoblastic leukemia. G. E. Foley, H. Lazarus, S. Farber, B. G. Uzman, B. A. Boone, and R E. McCarthy. Continuous culture of human lymphoblasts from peripheral blood of a child with acute leukemia. Cancer 18: 522-529 (1965). The subline CEM/VLB100 was developed to be resistant to up to vinblastine at 100 ng/ml. W. T. Beck, T. J. Mueller, and L. R. Tanzer. Altered surface membrane glycoproteins in Vinca alkaloid-resistant human leukemic lymphoblasts. Cancer Research 39: 2070-2076 (1979). Drug resistance is achieved by overexpression of the MDR1 gene. Resistance in the CEM subline designated CEM/VM-1-5, however, is “atypical.” M. K. Danks, J. C. Yalowich, and W. T. Beck. Atypical multiple drug resistance in a human leukemic cell line selected for resistance to teniposide (VM-26). Cancer Research 47: 1297-1301 (1987). The classes of drugs included in the “classic” multiple drug resistance phenotype are Vinca alkaloids, anthracyclines, epipodophyllotoxins and antibiotics. However, CEM/VM-1-5 cells retain sensitivity to the Vinca alkaloids despite resistance and cross-resistance to etoposide, anthracyclines and mitoxantrone. Danks, M. K.; Schmidt, C. A.; Cirtain, M. C.; Suttle, D. P.; Beck, W. T., Altered catalytic activity of and DNA cleavage by DNA topoisomerase II from human leukemic cells selected for resistance to VM-26. Biochemistry 1988, 27, 8861-8869. Resistance in CEM/VM-1-5 cells is effected by over expression of the […]. CEM, CEM/VLB100 and CEM/VM-1-5 cells were obtained from Dr. WT Beck, University of Illinois at Chicago.

[1] = tested on: MES-SA uterine sarcoma line; assay: MTT-based cytotoxicity assay, MES-SA; type: cell-based, human; conditions: Homo sapiens, MES-SA, read-out: IC50 MESSA (Hs)
From the text: as §1, §2
(§4) MES-SA/Dx5 cells express high levels of ABCB1 (MDR1) mRNA and its gene product, the P-glycoprotein. MES-SA and MES-SA/Dx5 were purchased from the American Type Culture Collection (ATCC, Manassas, Va.).

[2] = tested on: MES-SA/Dx5 doxorubicin-resistant subline (MDR+); assay: cells; type: cell-based, human; conditions: for IC50: Homo sapiens, MES-SA/Dx5, read-out: IC50 MESSA/Dx5 (MDR + Hs); for Degree of resistance (MESSA/Dx5): IC50 of the resistant line divided by IC50 of sensitive MES-SA cells
From the text: as §1, §2, §4

[3] = Estimation of maximum tolerated dose (MTD) in the mouse; conditions: in vivo, iv, mice, in lipid emulsion (INTRALIPID), survival for 30 day observation period
Procedure: Stock solutions of ART 198 and 273 and their respective acid labile, lipophilic molecular conjugates (ART 489 and ART 488, respectively) were prepared in ethanol and then diluted into a lipid emulsion (INTRALIPID®, 20% Soybean Oil, 1.2% egg yolk phospholipids, 2.25% glycerin and water) and injected intravenously into mice at various doses in milligrams per kilogram. The animals were observed daily for signs of toxicity and/or death for a period of 30 days. The MTD was defined as survival of the dosed mice for the full 30 day observation period.

CEM/VM-1-5 cells (MDR+) = assay: cells; type: cell-based, human; conditions: for IC50: Homo sapiens, read-out: IC50 CEM/VM-1-5 (MDR + HTL), CEM/VM-1-5, MTT; for Degree of resistance (CEM/VM-1-5): IC50 of the resistant line divided by IC50 of sensitive CEM cells
From the text: A second evaluation of the cytotoxicity of the acid labile, lipophilic molecular conjugates was undertaken. […]
as §3

Row | Structure (SMILES) | IC50 (CCRF-CEM (CEM) cells) [µM] | IC50 [1] [µM] | IC50 [2] [µM] | Degree of resistance (MESSA/Dx5) [2] | MTD at 30 days [3] [mg/kg] | IC50 (CEM/VM-1-5 cells (MDR+)) [µM] | Degree of resistance (CEM/VM-1-5) (CEM/VM-1-5 cells (MDR+))
1 | CCCCCCCCCCCCCCCC1OCC(COC(=O)O[C@@H]2C(=O)C=C(C)[C@@H]3C[C@H]4OC(=O)C(OC(=O)CC(O)(C(C)C)C(C)C)C5[C@@H](C)[C@@H](O)[C@@]6(O)OC[C@@]54C6[C@@]23C)O1 (stereo partly drawn) [ART 488] | 0.004 | 0.0015 ± 0.0007 | 0.007 ± 0.0057 | 4.3 ± 1.8 | 4 | 0.008 ± 0.004 | 2 ± 1
2 | COC(=O)[C@@]12OC[C@]34[C@H]([C@@H](O)[C@@H]1O)[C@@]1(C)CC(=O)C(O)=C(C)[C@@H]1C[C@H]3OC(=O)C(OC(=O)CC1(O)CCCCC1)[C@@H]24 (stereo partly drawn) [ART 198] | 0.113 ± 0.053 | 0.0475 ± 0.011 | 0.376 ± 0.11 | 7.9 ± 0.6 | 4 | 0.308 ± 0.01 | 3 ± 1
3 | CCCCCCCCCCCCCCCC1OCC(COC(=O)OC2=C(C)[C@@H]3C[C@H]4OC(=O)C(OC(=O)CC5(O)CCCCC5)[C@H]5[C@]6(C(=O)OC)OC[C@]45[C@H]([C@@H](O)[C@@H]6O)[C@@]3(C)CC2=O)O1 (stereo partly drawn) [ART 489] | 0.021 ± 0.002 | 0.0055 ± 0.0035 | 0.017 ± 0.0057 | 4.3 ± 3.8 | 3.1 | 0.024 ± 0.004 | 1.2 ± 0.07
